In PMC4949196, “Binding interaction of a gamma-aminobutyric acid derivative with serum albumin: an insight by fluorescence and molecular modeling analysis” (SpringerPlus, 2016):

Assays:
[1] = molecular target: T1, human serum albumin (HSA) (Homo sapiens, UniProt P02768); experiment: intrinsic tryptophan fluorescence quenching titration, Langmuir isotherm fit, room temperature, pH […]; type: binding
T1 construct: gene ALB

[2] = molecular target: T2, bovine serum albumin (BSA) (Bos taurus, UniProt P02769); experiment: as above; type: binding
T2 construct: gene ALB
T2 sequence (P02769 25-607): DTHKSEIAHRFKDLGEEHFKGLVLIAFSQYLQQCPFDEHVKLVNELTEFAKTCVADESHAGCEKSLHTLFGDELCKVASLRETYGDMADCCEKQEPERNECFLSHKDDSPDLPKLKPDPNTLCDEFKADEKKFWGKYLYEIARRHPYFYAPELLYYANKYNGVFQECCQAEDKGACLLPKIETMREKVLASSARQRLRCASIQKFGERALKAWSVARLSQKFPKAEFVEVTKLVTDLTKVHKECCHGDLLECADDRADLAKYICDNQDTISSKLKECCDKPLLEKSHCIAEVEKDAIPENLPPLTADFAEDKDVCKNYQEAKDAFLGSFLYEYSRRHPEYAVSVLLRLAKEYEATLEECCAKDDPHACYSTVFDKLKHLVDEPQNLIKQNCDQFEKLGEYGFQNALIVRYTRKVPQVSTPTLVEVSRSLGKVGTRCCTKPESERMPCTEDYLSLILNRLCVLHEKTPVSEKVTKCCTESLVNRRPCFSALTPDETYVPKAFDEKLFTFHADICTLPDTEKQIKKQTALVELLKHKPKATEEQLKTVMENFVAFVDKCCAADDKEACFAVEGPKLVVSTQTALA

T1 sequence (P02768 25-609): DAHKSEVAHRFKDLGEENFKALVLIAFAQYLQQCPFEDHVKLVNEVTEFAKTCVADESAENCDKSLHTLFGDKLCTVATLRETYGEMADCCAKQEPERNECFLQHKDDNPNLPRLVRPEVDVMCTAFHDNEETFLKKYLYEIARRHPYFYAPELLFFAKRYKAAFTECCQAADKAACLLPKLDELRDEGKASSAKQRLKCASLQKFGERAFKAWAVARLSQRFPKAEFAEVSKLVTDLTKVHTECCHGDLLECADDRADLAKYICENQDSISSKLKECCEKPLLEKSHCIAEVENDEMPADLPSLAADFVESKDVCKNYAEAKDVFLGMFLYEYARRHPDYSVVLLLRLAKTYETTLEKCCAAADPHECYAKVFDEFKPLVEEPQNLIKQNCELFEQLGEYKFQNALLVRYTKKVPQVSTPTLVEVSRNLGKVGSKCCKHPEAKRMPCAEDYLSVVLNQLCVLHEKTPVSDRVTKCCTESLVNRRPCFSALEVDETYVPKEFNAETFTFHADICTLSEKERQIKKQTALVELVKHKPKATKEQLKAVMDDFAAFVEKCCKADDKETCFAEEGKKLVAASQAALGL

## COC(=O)CCCNC(=O)c1ccc(N(CC(=O)OC(C)(C)C)c2ccc(OC)cc2)cc1 [compound 5, methyl 4-(4-((2-(tert-butoxy)-2-oxoethyl)(4-methoxyphenyl)amino)benzamido)butanoate]
[1]
  Kd: 2.75 µM
[2]
  Kd: 3.85 µM
